Test results taken from US20260242390A1, “TOTAL SYNTHESES OF PORTIMINE A AND ANALOGUES THEREOF AS SMALL MOLECULE MODULATORS OF NMD3” (priority 2023, published 2026).

Experiments:
[1] = tested on: Jurkat cells; experiment: Initial SAR: activity of PAL functionalized PTMA analogs; type: cell-based, human; details: in the concentrate range
Text: FIG. 3. Initial SAR studies: Assessing activity of PAL functionalized PTMA analogs. […] (A) PA and Ph-PA show less toxic to healthy PBMCs compared to Jurkat cells. […] (B) Immunoblot of caspase-3 in Jurkat and PBMCs with indicated conditions.
• 1) Portimine A and its functional analogs show stereo-selective acute toxicity in cancer cells (FIG. 1). […] (B) Structure of portimine related analogs: phenyl-portimine A (Ph-PA, 36) and epi-portimine A (ePA, 38). Structure of fully functionalized portimine A-based epimeric probe pair: portimine A-diazirine-alkyne (PA-DA, 35-2) and epi-portimine A-diazirine-alkyne (ePA-DA, 35-1). (C) Cell viability analysis of portimine A and analogs. Jurkat cells were treated with increasing concentrations of portimine A and analogs for 24 hours. All presented data as mean of biological replicated experiments (n=3). […] Jurkat cells were treated with portimine A or analogs for 12 hours at 10 nM. […] Structurally related negative control ePA and PB are non-toxic in all cell types in the current concentrate range. PBMCs (25k per well), Jurkat (10k per well). […] Cell cycle analysis in Jurkat cells (FIG. 2). Jurkat cells were treated with 10 nM of indicated compounds for 24 hours, and propodium iodide was used to identify different stages of cells by flow cytometry. […] (A) PA and Ph-PA show less toxic to healthy PBMCs compared to Jurkat cells. […] (B) Immunoblot of caspase-3 in Jurkat and PBMCs with indicated conditions. […] (A) Pharmacokinetic studies of mouse intraperitoneal (i.p.) and oral (p.o.) administration for portimine (n=3). […] Impact of PA [0.3 or 1 mg/kg intraperitoneally] on MC38 tumor growth in WT mice (n=6). (C) Kaplan-Myer survival curve of WT MC38 tumor-bearing mice (n=6) after treatment with PA as described in (D). Mice were euthanized when tumor area exceeded 2000 mm^3. Statistical analysis was performed using ANOVA analysis followed by multiple comparisons test, * p≤0.05. Treatment condition: Jurkat (60 M per condition); PA-DA/ePA-DA concentration: 0.5 uM, PA or ePA: 5 uM; Incubate with probe with or without competitors (PA, ePA) for 30 min; UV irradiated for 20 min. (0.5 uM PA-DA add a no-UV condition), Standard pulldown & biotin-enrichment and western blot analysis (Elute condition: 2× sample buffer+500 uM biotin, boil for 20 mins); Primary antibody NMD3 (ProteinTech, 1:150), Actin (BioRad, 1:10000). […] Cell lysates were fractionated by sucrose gradient (5-50%) and each fraction were analyzed by western blot. eIF6 levels increase in 60S subunit fraction and decrease in ribosome-free fractions after PA treatment. […]

[2] = tested on: normal murine haematopoietic cells; details: cited from earlier work
[3] = tested on: human T-cell acute lymphoblastic leukaemia (T-ALL) cell lines; details: cited from earlier work

| Structure (SMILES) | activity of PAL functionalized PTMA analogs [1] | toxicity to normal murine haematopoietic cells [2] | apoptosis in a panel of 14 human T-ALL cell lines [3] |
| --- | --- | --- | --- |
| CC(=O)O[C@@H]1CC(C)[C@@H]2CC[C@@]3(C[C@@H](O)C4=NCC[C@@]45CCC(c4ccc(C(=O)NCCC6(CCC#N)N=N6)cc4)=C[C@@H]5[C@H](O3)C1=O)O2 (stereo partly drawn) [epi-PTMA-Ac-DA] | no activity | – | – |
| O=C(/C=C\n1cnc(-c2cc(C(F)(F)F)cc(C(F)(F)F)c2)n1)NNc1cnccn1 [KPT-330] | – | little toxicity | induced rapid apoptosis at low nanomolar concentrations |
